Results: PMC6234229, “The role of loops B and C in determining the potentiation of GABAA receptors by midazolam” (Pharmacology Research & Perspectives, 2018)
Several values for one entry are separate records, joined by “and”; a condition that tells them apart may be missing. Equal values may be shown once. Read-outs that look alike come from different tables or passages of the source.

How the values were obtained:
[1] = target: T1, α6(P161T)β2γ2 GABAA receptor (Homo sapiens, UniProt P18507+P47870+Q16445, P180T); conditions: GABA Hill fit
T1 sequence (Q16445 20-453 P180T): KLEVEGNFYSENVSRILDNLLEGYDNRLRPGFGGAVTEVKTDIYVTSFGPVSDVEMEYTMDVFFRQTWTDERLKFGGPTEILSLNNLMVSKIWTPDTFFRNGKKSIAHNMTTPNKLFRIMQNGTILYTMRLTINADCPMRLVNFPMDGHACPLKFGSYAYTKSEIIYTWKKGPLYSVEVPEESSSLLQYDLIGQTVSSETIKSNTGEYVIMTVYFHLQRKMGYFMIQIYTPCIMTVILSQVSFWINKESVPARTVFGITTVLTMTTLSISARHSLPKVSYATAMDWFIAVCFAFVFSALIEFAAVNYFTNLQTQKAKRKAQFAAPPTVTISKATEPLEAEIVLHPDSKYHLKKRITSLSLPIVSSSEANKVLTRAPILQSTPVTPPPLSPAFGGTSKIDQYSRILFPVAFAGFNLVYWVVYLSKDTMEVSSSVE
T1 sequence (P47870 26-474 isoform P47870-1 limits assumed, stated change not applied): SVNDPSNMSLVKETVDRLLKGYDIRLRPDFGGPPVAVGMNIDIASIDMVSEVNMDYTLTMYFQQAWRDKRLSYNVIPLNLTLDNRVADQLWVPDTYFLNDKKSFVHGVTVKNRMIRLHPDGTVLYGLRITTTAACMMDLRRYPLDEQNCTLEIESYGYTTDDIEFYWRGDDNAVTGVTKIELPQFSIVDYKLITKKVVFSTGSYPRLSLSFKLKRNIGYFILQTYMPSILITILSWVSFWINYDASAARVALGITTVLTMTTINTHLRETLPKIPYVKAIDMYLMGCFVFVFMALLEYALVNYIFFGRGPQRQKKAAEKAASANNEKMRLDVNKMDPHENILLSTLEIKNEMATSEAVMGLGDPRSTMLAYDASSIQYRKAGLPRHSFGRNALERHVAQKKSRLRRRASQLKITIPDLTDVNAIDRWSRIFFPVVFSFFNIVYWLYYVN
T1 sequence (P18507 40-467 isoform P18507-1 limits assumed, stated change not applied): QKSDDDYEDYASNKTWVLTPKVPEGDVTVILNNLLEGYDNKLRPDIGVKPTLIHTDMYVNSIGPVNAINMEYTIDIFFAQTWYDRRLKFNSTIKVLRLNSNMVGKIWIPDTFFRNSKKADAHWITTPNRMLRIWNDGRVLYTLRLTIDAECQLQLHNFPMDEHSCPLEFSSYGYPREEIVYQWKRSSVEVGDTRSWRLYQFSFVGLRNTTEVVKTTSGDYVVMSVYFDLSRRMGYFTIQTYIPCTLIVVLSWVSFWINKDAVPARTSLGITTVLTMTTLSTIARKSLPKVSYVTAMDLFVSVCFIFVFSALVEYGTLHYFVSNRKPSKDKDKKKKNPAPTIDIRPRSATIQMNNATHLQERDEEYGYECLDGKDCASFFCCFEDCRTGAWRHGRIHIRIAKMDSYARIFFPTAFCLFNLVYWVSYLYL
Excerpt: (§1) Human (Homo sapiens) GABAA subunits (α1‐6, β2, γ2s) were subcloned into pcDNA3.1+ vectors with a cytomegalovirus (CMV) promoter. The hβ2 and hα3 sequences were humanized rat (Rattus norvegicus) cDNA with amino acid substitutions made to match the human protein sequence. The α1‐3, α5, β2, and γ2s subunits were a generous gift from Neil L. Harrison (Columbia University Medical Center, NY). The α4 subunit was obtained from GenScript (Piscataway, NJ), and the α6 subunit was a generous gift from Robert L. McDonald (Vanderbilt University, TN). […]
(§2) Human embryonic kidney cells containing the SV40 T‐antigen (HEK293T) were acquired from American Type Culture Collection (ATCC®, Manassas, VA), catalogue number, CRL3216. […] Experiments consisted of at least five cells recorded per day from at least two transfections across 3‐4 days to control for cell health and transfection efficiency. At least three cells expressing wild‐type receptors were recorded on days that mutant receptors were tested to provide a time‐matched expression control. […]
(§3) Extracellular solution contained 161 mM NaCl, 3 mM KCl, 1 mM MgCl2, 1.5 mM CaCl2, 10 mM HEPES, and 6 mM D‐glucose, adjusted to pH 7.4 with NaOH (320‐330 mOsm). […] Whole‐cell currents were recorded at ‐60 mV, filtered at 100 Hz and sampled at 200 Hz with a MultiClamp 700B amplifier (Molecular Devices, LLC) and DigiData 1322A (Molecular Devices, LLC) digitizer. […]

[2] = target: T2, α6(R100H)β2γ2 GABAA receptor (Homo sapiens, UniProt P18507+P47870+Q16445, R119H); conditions: GABA Hill fit
T2 sequence (Q16445 20-453 R119H): as the sequence (Q16445 20-453 P180T) above, with R100H, T161P counted along it
T2 sequence (P47870 26-474 isoform P47870-1 limits assumed, stated change not applied): as the sequence (P47870 26-474 isoform P47870-1 limits assumed, stated change not applied) above
T2 sequence (P18507 40-467 isoform P18507-1 limits assumed, stated change not applied): as the sequence (P18507 40-467 isoform P18507-1 limits assumed, stated change not applied) above
Excerpt: as §1, §2, §3

[3] = target: T3, α4(I204S)β2γ2 GABAA receptor (Homo sapiens, UniProt P18507+P47870+P48169, I239S); experiment: Midazolam potentiation of EC10 GABA currents, whole-cell patch clamp, HEK293T; type: cell-based
T3 construct: expressed in transfected cells; host or cells: HEK293T
T3 sequence (P48169 36-554 I239S): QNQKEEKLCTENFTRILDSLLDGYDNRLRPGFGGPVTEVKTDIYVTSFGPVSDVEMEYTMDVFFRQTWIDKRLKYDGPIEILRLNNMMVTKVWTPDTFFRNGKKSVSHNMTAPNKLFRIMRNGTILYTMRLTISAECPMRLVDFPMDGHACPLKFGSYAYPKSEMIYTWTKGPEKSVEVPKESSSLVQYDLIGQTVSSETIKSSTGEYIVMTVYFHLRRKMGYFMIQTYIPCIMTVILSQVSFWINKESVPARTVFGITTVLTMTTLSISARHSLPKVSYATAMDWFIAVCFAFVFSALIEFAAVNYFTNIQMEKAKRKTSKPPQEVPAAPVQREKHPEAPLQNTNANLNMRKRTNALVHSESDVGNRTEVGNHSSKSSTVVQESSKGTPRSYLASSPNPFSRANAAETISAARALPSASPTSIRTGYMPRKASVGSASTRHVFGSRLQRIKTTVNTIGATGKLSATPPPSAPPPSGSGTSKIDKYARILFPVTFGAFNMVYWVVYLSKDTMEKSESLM
T3 sequence (P47870 26-474 isoform P47870-1 limits assumed, stated change not applied): as the sequence (P47870 26-474 isoform P47870-1 limits assumed, stated change not applied) above
T3 sequence (P18507 40-467 isoform P18507-1 limits assumed, stated change not applied): as the sequence (P18507 40-467 isoform P18507-1 limits assumed, stated change not applied) above
Excerpt: (§4) Human (Homo sapiens) GABAA subunits (α1‐6, β2, γ2s) were subcloned into pcDNA3.1+ vectors with a cytomegalovirus (CMV) promoter. The hβ2 and hα3 sequences were humanized rat (Rattus norvegicus) cDNA with amino acid substitutions made to match the human protein sequence. The α1‐3, α5, β2, and γ2s subunits were a generous gift from Neil L. Harrison (Columbia University Medical Center, NY). The α4 subunit was obtained from GenScript (Piscataway, NJ), and the α6 subunit was a generous gift from Robert L. McDonald (Vanderbilt University, TN). All point mutations (listed in Figure 1C) were introduced using the QuikChange Lightening site‐directed mutagenesis kit (Agilent Technologies, Santa Clara, CA) according to the manufacturer's instructions and were confirmed by sequencing (Eurofins MWG Operon, Louisville, KY).
(§5) Human embryonic kidney cells containing the SV40 T‐antigen (HEK293T) were acquired from American Type Culture Collection (ATCC®, Manassas, VA), catalogue number, CRL3216. HEK293T cells were maintained at 37°C and 5% CO2 in Eagle Minimum Essential Medium (MEM) supplemented with 5% fetal bovine serum (Atlanta Biologicals Inc., Flowery Branch, GA), 40 μM L‐glutamine, 100 U/mL penicillin and 0.1 mM streptomycin. Cells were passaged regularly when they reached 70% confluency using trypsin. Cells were not passaged more than 22 times. New cells were revived from frozen stocks at passage 2‐4. Cells used for in vitro electrophysiology experiments were grown on poly‐D‐lysine‐coated glass coverslips (No.2, VWR, Radnor, PA) and transfected with X‐tremeGENE (Roche Diagnostics, Indianapolis, IN) with the desired receptor subunit cDNAs at a 1:1:1 ratio to express αxβ2γ2s receptors (2 μg total cDNA) and with 0.5 μg green fluorescent protein (GFP) as an expression marker. The γ2s incorporation into receptors was tested with zinc inhibition assays regularly.24 Patch clamp experiments were performed on cells at 24‐72 hours post‐transfection. All experiments were performed at 22°C. Experiments consisted of at least five cells recorded per day from at least two transfections across 3‐4 days to control for cell health and transfection efficiency. At least three cells expressing wild‐type receptors were recorded on days that mutant receptors were tested to provide a time‐matched expression control. All reagents were purchased from Sigma‐Aldrich (St. Louis, MO) unless otherwise stated.
(§6) Extracellular solution contained 161 mM NaCl, 3 mM KCl, 1 mM MgCl2, 1.5 mM CaCl2, 10 mM HEPES, and 6 mM D‐glucose, adjusted to pH 7.4 with NaOH (320‐330 mOsm). […] The perfusion system was controlled by protocols written in pClamp 9 (Molecular Devices, LLC., Sunnyvale, CA). Whole‐cell currents were recorded at ‐60 mV, filtered at 100 Hz and sampled at 200 Hz with a MultiClamp 700B amplifier (Molecular Devices, LLC) and DigiData 1322A (Molecular Devices, LLC) digitizer. […] Cells were recorded with the midazolam protocol no more than two times to avoid desensitization and incomplete washout or irreversible modulation.
(§7) Recordings were analyzed using MATLAB (Math Works, Inc., Natick, MA). […] The maximum peak current, EC50 and Hill coefficient were estimated for assays from each cell. When Hill parameters are estimated from whole‐cell recordings, the changes in the parameters across receptor conditions can be ascribed to the following changes in receptor physiology. Changes in maximum current can be due to changes in the single‐channel conductance or the rate of desensitization. Changes in cell surface receptor expression can cause minor changes in maximum current, but are unlikely to occur in the time course of our experimental protocol. […] More often minor changes in the Hill coefficient are attributed to the altered homogeneity in the receptor population expressed by the HEK293T cell. For example, a shallower Hill coefficient could be caused by a shift in the population of receptors from mostly αβγ receptors to a combination of both αβ and αβγ receptors.

[4] = target: T4, α5(P166T)β2γ2 GABAA receptor (Homo sapiens, UniProt P18507+P31644+P47870, P197T); experiment: as above; type: cell-based
T4 construct: expressed in transfected cells; host or cells: HEK293T
T4 sequence (P31644 32-462 P197T): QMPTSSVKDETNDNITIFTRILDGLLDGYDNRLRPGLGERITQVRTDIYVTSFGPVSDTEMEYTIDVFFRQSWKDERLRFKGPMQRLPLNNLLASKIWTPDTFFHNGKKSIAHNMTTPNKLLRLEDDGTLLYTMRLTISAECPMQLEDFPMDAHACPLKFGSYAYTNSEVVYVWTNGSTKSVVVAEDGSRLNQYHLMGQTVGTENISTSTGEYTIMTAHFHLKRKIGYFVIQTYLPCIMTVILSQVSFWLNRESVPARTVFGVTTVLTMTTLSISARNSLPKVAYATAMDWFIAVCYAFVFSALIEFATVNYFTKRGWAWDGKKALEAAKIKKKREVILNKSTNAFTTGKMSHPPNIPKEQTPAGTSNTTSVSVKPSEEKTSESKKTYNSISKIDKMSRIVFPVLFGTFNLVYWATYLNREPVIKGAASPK
T4 sequence (P47870 26-474 isoform P47870-1 limits assumed, stated change not applied): as the sequence (P47870 26-474 isoform P47870-1 limits assumed, stated change not applied) above
T4 sequence (P18507 40-467 isoform P18507-1 limits assumed, stated change not applied): as the sequence (P18507 40-467 isoform P18507-1 limits assumed, stated change not applied) above
Excerpt: as §4, §5, §6, §7

[5] = target: T5, α6β2γ2 GABAA receptor (Homo sapiens, UniProt P18507+P47870+Q16445); experiment: as above; type: cell-based; conditions: for Midazolam potentiation (%): α6β2γ2
T5 construct: expressed in transfected cells; host or cells: HEK293T
T5 sequence (Q16445 20-453): as the sequence (Q16445 20-453 P180T) above, with T161P counted along it
T5 sequence (P47870 26-474 isoform P47870-1 limits assumed): as the sequence (P47870 26-474 isoform P47870-1 limits assumed, stated change not applied) above
T5 sequence (P18507 40-467 isoform P18507-1 limits assumed): as the sequence (P18507 40-467 isoform P18507-1 limits assumed, stated change not applied) above
Excerpt: as §4, §5, §6, §7

[6] = cited from earlier work
[7] = target: T1, α6(P161T)β2γ2 GABAA receptor; experiment: Midazolam potentiation of EC10 GABA currents, whole-cell patch clamp, HEK293T; type: cell-based; parameters: expressed in transfected cells; host or cells: HEK293T; conditions: for Midazolam potentiation (%): α6(P161T)
Excerpt: as §4, §5, §6, §7

[8] = target: T2, α6(R100H)β2γ2 GABAA receptor; experiment: as above; type: cell-based; parameters: expressed in transfected cells; host or cells: HEK293T
Excerpt: as §4, §5, §6, §7

NCCCC(=O)O [GABA, γ‐aminobutyric acid]
Max Current (pA) [1]: -3540 ± 290.2 pA
Max Current (pA) [2]: -2902 ± 349.5 pA

Cc1ncc2n1-c1ccc(Cl)cc1C(c1ccccc1F)=NC2 [midazolam]
responsiveness to midazolam potentiation [3]: failed to convey any notable midazolam potentiation
Midazolam potentiation (%) ([3]; 10 nM MDZ + EC10 GABA): 9.47 ± 1.93%
Midazolam potentiation (%) ([3]; 50 nM MDZ + EC10 GABA): 13.23 ± 1.68%
Midazolam potentiation (%) ([3]; 100 nM MDZ + EC10 GABA): 16.59 ± 1.59%
Midazolam potentiation (%) ([3]; 500 nM MDZ + EC10 GABA): 20.16 ± 2.01%
Midazolam potentiation (%) ([3]; 1000 nM MDZ + EC10 GABA): 23.95 ± 2.33%
EC50 [4]: 53.3 ± 5.54 nM
Midazolam potentiation (%) ([4]; 10 nM MDZ + EC10 GABA, α5(P166T)): 13.32 ± 1.68%
Midazolam potentiation (%) ([4]; 50 nM MDZ + EC10 GABA, α5(P166T)): 54.02 ± 5.66%
Midazolam potentiation (%) ([4]; 100 nM MDZ + EC10 GABA, α5(P166T)): 106.37 ± 15.09%
Midazolam potentiation (%) ([4]; 500 nM MDZ + EC10 GABA, α5(P166T)): 134.76 ± 21.59%
Midazolam potentiation (%) ([4]; 1000 nM MDZ + EC10 GABA, α5(P166T)): 141.51 ± 25.59%
Max potentiation (%) ([4]; α5(P166T), Hill fit, midazolam 10-1000 nM + EC10 GABA): 140.7 ± 23.7%
Hill coefficient ([4]; α5(P166T), midazolam Hill fit): 3.661 ± 1.897
Midazolam potentiation (%) ([5]; 10 nM MDZ + EC10 GABA): 14.66 ± 3.92%
Midazolam potentiation (%) ([5]; 50 nM MDZ + EC10 GABA): 14.55 ± 3.86%
Midazolam potentiation (%) ([5]; 100 nM MDZ + EC10 GABA): 14.58 ± 4.87%
Midazolam potentiation (%) ([5]; 500 nM MDZ + EC10 GABA): 11.15 ± 6.25%
Midazolam potentiation (%) ([5]; 1000 nM MDZ + EC10 GABA): 23.34 ± 4.23%
responsiveness to midazolam potentiation ([5]; wildtype α6β2γ2): no notable midazolam potentiation
therapeutically relevant range of midazolam measured from plasma ([6]; anesthetized state): 350 ng/mL and 966 nM
therapeutically relevant range of midazolam measured from plasma ([6]; postoperative drowsiness): 75 ng/mL and 207 nM
Midazolam potentiation (%) ([7]; 10 nM MDZ + EC10 GABA): 7.52 ± 3.56%
Midazolam potentiation (%) ([7]; 50 nM MDZ + EC10 GABA): 13.89 ± 3.99%
Midazolam potentiation (%) ([7]; 100 nM MDZ + EC10 GABA): 24.46 ± 3.86%
Midazolam potentiation (%) ([7]; 500 nM MDZ + EC10 GABA): 17.25 ± 3.52%
Midazolam potentiation (%) ([7]; 1000 nM MDZ + EC10 GABA): 16.98 ± 4.08%
responsiveness to midazolam potentiation ([7]; α6(P161T)β2γ2): failed to confer midazolam responsiveness
EC50 [8]: 41.9 ± 6.02 nM
Midazolam potentiation (%) ([8]; 10 nM MDZ + EC10 GABA, α6(R100H)): 14.39 ± 8.03%
Midazolam potentiation (%) ([8]; 50 nM MDZ + EC10 GABA, α6(R100H)): 45.91 ± 12.95%
Midazolam potentiation (%) ([8]; 100 nM MDZ + EC10 GABA, α6(R100H)): 71.31 ± 17.31%
Midazolam potentiation (%) ([8]; 500 nM MDZ + EC10 GABA, α6(R100H)): 85.96 ± 19.92%
Midazolam potentiation (%) ([8]; 1000 nM MDZ + EC10 GABA, α6(R100H)): 79.13 ± 19.87%
Max potentiation (%) ([8]; α6(R100H), Hill fit, midazolam 10-1000 nM + EC10 GABA): 93.27 ± 22.84%
Hill coefficient ([8]; α6(R100H), midazolam Hill fit): 2.310 ± 0.56
